Reference: ChEMBL document CHEMBL1135592, “Structural determinants of A(3) adenosine receptor activation: nucleoside ligands at the agonist/antagonist boundary” (J Med Chem, 2002)
pEC50, pKi: −log10 of the molar value.

Columns and labels:
Adenosine receptor A3 [1] = target: Adenosine receptor A3 (Homo sapiens, UniProt P0DMS8, W243A); assay: Binding affinity towards Adenosine A3 receptor (W243 A mutant receptor)
Adenosine receptor A3 [2] = target: T1, Adenosine receptor A3 (Homo sapiens, UniProt P0DMS8); assay: Binding affinity towards human Adenosine A3 receptor wild type
T1 sequence (P0DMS8 whole entry): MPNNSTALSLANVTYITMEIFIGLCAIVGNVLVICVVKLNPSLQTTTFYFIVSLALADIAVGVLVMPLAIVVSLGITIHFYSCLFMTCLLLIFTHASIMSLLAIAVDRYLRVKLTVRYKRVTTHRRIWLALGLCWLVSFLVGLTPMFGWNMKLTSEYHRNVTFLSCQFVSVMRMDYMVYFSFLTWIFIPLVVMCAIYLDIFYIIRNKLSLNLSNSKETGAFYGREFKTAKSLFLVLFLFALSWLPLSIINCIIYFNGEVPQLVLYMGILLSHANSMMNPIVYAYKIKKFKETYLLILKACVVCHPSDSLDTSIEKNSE

Adenosine receptor A3 [3] = target: T1, Adenosine receptor A3; assay: Effect on forskolin-stimulated cyclic AMP production in intact chinese hamster ovary (CHO) cell expressing the human Adenosine A3 receptor; type: functional
Adenosine receptor A3 [4] = target: T1, Adenosine receptor A3; assay: Affinity for human Adenosine A3 receptor expressed in CHO cell; type: cell-based
Adenosine receptor A3 [5] = target: Adenosine receptor A3 (Homo sapiens, UniProt P0DMS8, H95A); assay: Binding affinity towards Adenosine A3 receptor (H95A mutant receptor)
Adenosine receptor A3 [6] = target: T1, Adenosine receptor A3; assay: Affinity towards human Adenosine A3 receptor in CHO cell; type: cell-based
Adenosine receptor A3 [7] = target: T2, Adenosine receptor A3 (Rattus norvegicus, UniProt P28647); assay: Binding affinity of adenosine derivative for recombinant rat Adenosine A3 receptor expressed on CHO cell
T2 sequence (P28647 whole entry): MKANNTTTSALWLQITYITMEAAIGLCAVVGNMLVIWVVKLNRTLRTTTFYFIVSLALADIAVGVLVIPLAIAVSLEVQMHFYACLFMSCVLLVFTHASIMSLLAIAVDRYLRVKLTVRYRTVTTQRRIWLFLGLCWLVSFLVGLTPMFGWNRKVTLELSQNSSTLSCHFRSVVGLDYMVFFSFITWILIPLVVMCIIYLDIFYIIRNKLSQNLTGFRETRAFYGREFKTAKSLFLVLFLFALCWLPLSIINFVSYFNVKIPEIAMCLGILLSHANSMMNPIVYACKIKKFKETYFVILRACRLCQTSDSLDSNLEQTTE

Adenosine receptor A3 [8] = target: T2, Adenosine receptor A3; assay: Binding affinity of adenosine derivative for endogenous rat Adenosine A3 receptor of RBL-2H3
Adenosine receptor A3 [9] = target: Adenosine receptor A3 (Homo sapiens, UniProt P0DMS8); assay: Binding affinity towards Adenosine A3 receptor (W243 mutant receptor)
Adenosine receptor A3 [10] = target: T1, Adenosine receptor A3; assay: biochemical
Description: Binding affinity in membrane of CHO cell stably expressing recombinant human Adenosine A3 receptor in the presence of GTPgammaS using [3H]8-ethyl-4-methyl-2-phenyl-(8R)-4,5,7,8-tetrahydro-1H-imidazo[2,1-i]-purin-5-one as radioligand

Adenosine receptor A3 [11] = target: T1, Adenosine receptor A3; assay: biochemical; remark: listed apart in the source
Description: Bnding affinity in membrane of CHO cell stably expressing recombinant human Adenosine A3 receptor using [3H]8-ethyl-4-methyl-2-phenyl-(8R)-4,5,7,8-tetrahydro-1H-imidazo[2,1-i]-purin-5-one as radioligand

Adenosine receptor A3 (Homo sapiens, UniProt P0DMS8, H95A), sequence (P0DMS8 whole entry H95A): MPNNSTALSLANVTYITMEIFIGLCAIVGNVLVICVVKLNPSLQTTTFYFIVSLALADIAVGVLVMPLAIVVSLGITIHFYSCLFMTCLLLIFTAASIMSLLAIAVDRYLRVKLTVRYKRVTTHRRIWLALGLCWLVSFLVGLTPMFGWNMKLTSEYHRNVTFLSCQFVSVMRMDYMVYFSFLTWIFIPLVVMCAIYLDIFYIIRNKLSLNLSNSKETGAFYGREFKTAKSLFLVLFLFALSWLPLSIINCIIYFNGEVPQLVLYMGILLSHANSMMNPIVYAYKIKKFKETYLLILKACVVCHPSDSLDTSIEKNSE
Adenosine receptor A3 (Homo sapiens, UniProt P0DMS8, W243A), sequence (P0DMS8 whole entry W243A): as the sequence (P0DMS8 whole entry H95A) above, with A95H, W243A counted along it

Row | SMILES | pKi (Adenosine receptor A3 [1]) | pKi (Adenosine receptor A3 [2]) | pEC50 (Adenosine receptor A3 [3]) | pKi (Adenosine receptor A3 [4]) | further results
1 | Nc1nc(Cl)nc2c1ncn2C1C(O)C(O)C2(CO)CC12 (configuration not stated) | 7.34 | 7.08 | – | – | –
2 | Nc1nc(F)nc2c1ncn2[C@@H]1O[C@H](CO)[C@@H](O)[C@H]1O | – | – | 5.58 | 7.00 | –
3 | OC[C@H]1O[C@@H](n2cnc3c(NC4CCCC4)ncnc32)[C@H](O)[C@@H]1O [N6-CYCLOPENTYLADENOSINE] | 6.86 | 6.85 | 6.62 | – | pKi (Adenosine receptor A3 [5]): 6.21
4 | CNC(=O)C12CC1C(n1cnc3c(NC)nc(Cl)nc31)C(O)C2O (configuration not stated) | – | – | 8.85 | 8.47 | –
5 | CNC(=O)[C@H]1O[C@@H](n2cnc3c(NCc4cccc(I)c4)nc(Cl)nc32)[C@@H]2O[C@@H]21 | – | – | – | – | pKi (Adenosine receptor A3 [6]): 5.96
6 | OCC12CC1C(n1cnc3c(NCc4cccc(I)c4)ncnc31)C(O)C2O (configuration not stated) | 8.57 | 8.41 | – | 8.04 | pKi (Adenosine receptor A3 [5]): 7.00
7 | Nc1nc(Cl)nc2c1ncn2[C@@H]1O[C@H](CO)[C@@H](O)[C@H]1O | – | – | 5.79 | 7.06 | –
8 | O=C1NCC[C@@]12O[C@@H](n1cnc3c(NCc4cccc(I)c4)ncnc31)[C@H](O)[C@@H]2O | – | – | – | – | pKi (Adenosine receptor A3 [7]): 7.31; pKi (Adenosine receptor A3 [8]): 7.29
9 | CCCOC(=O)c1c(-c2ccccc2)nc(CC)c(C(=O)SCC)c1CCC | – | 6.62 | – | – | pKi (Adenosine receptor A3 [9]): 5.67; pKi (Adenosine receptor A3 [7]): 6.63; pKi (Adenosine receptor A3 [8]): 6.45
10 | CCCCn1c(=O)c2c(ncn2[C@@H]2O[C@H](C(=O)NC)[C@@H](O)[C@H]2O)n(CCCC)c1=O | – | – | 6.08 | 6.09 | –
11 | CNC(=O)C12CC1C(n1cnc3c(NCc4cccc(I)c4)ncnc31)C(O)C2O (configuration not stated) | 8.92 | 8.68 | 8.27 | 8.89 | –
12 | OCC12CC1C(n1cnc3c(NCc4cccc(I)c4)nc(Cl)nc31)C1OC12 (configuration not stated) | 6.31 | 6.23 | – | 6.24 | –
13 | OCC12CC1C(n1cnc3c(NCc4cccc(I)c4)nc(Cl)nc31)C(O)C2O (configuration not stated) | – | 8.77 | – | 8.72 | pKi (Adenosine receptor A3 [5]): 6.34; pKi (Adenosine receptor A3 [9]): 8.89; pKi (Adenosine receptor A3 [7]): 8.89; pKi (Adenosine receptor A3 [8]): 8.54; pKi (Adenosine receptor A3 [10]): 8.40; pKi (Adenosine receptor A3 [11]): 8.57
14 | OC[C@H]1O[C@@H](n2cnc3c(NCc4cccc(I)c4)nc(Cl)nc32)[C@H](O)[C@@H]1O | – | – | – | – | pKi (Adenosine receptor A3 [7]): 8.80; pKi (Adenosine receptor A3 [8]): 8.57
